Laboratory results from patent US11672775B2, “Treprostinil prodrugs” (United Therapeutics Corporation, priority 2016, dated 2023).

Columns and labels:
Sprague Dawley rats [1] = assay: Rat intraplantar injection model, thermal pain sensitivity (Example 9); type: in vivo, Sprague Dawley rat; details: 1 μg/mL or 100 μg/mL; 15 minutes post-administration
Procedure: (§1) Male Sprague Dawley rats (n=112) were allocated into 14 groups of 8/group. The study was run in 2 cycles, on consecutive days, 7 groups per cycle. Each cycle was composed of a Saline group, PBS group, which served as the control, and also treprostinil at a dose of 100 μg/mL or 1 μg/mL.
(§2) Animals were administered 0.1 mL of test material by subcutaneous injection into the paw pad (Intraplantar injection) at time zero. Animals were subsequently evaluated for their response to mechanical (von Frey filaments) and thermal stimuli, 15 and 90 minutes post-injection. The von Frey test was conducted prior to the thermal test, which followed immediately within minutes for each animal. In addition, clinical observation scoring of the animal's reaction to injection was conducted. FIG. 16 schematically illustrates the study design.
The sensitivity of animals to a thermal pain stimulus was assessed immediately following the von Frey test. The time until withdrawal of the right-injected leg from a heat source was measured, and the lower (faster) the time of response represents a greater sensitivity to the stimulus. The test was performed 15 and 90 minutes post-Test Item injection.

EP2 receptor = target: T1, EP2 receptor (Homo sapiens, UniProt P43116); assay: cAMP assay (HTRF cAMP HiRange Kit), agonist mode, Example 4; type: cell-based; details: Table 2; HEK293T cells; read-out: Receptor activity EC50, EP receptor
T1 construct: expressed in transfected cells
Procedure: Materials. […] Cyclic AMP assay kit: HTRF cAMP HiRange Kit (CisBio, Cat #62AM6PEC). Cyclic AMP (cAMP) Assay: cAMP assays were performed according to the manufacturer's protocol using CisBio's HTRF cAMP HiRange Kit. […] The reaction was terminated by sequentially adding D2-labeled cAMP and cryptate-labeled anti-cAMP antibody in lysis buffer. […] Data in graphs are represented in Mean±SD. Dose-dependent responses were fitted with sigmoidal dose-response curves allowing variable slopes using GraphPad Prism versions 4, 5 or 6 (Graphpad Prism).

Sprague Dawley rats [2] = assay: Cardiovascular assessment by radiotelemetry following subcutaneous injection (Example 12); type: in vivo, Sprague Dawley rat
Procedure: (§3) Clinical observations were performed at approximately 6 hours prior to dosing, at the completion of dosing and at approximately 4 hours postdosing.

Sprague Dawley rats [3] = assay: Rat intraplantar injection model, von Frey test (Example 9); type: in vivo, Sprague Dawley rat; details: 1 μg/mL or 100 μg/mL; 15 and 90 minutes post-injection
Procedure: as §1, §2
Mechanical pain sensitivity was tested using the von Frey test, which measures the withdrawal force threshold of the animals. The lower the force applied represents a greater sensitivity to the stimulus. The von Frey test was performed 15 and 90 minutes post-Test Item injection.

Sprague Dawley rats [4] = assay: Rat intraplantar injection model, clinical observation score (Example 9); type: in vivo, Sprague Dawley rat
Procedure: as §1, §2
A Clinical observation score was assigned by assessing for redness, swelling and paw placement.

Sprague Dawley rats [5] = assay: Rat intraplantar injection model, thermal pain sensitivity (Example 10); type: in vivo, Sprague Dawley rat
Procedure: (§4) Male Sprague Dawley rats (n=56) were allocated into 7 groups of 8 animals per group. […] Each group was compared to the phosphate buffer (50-mM phosphate buffer with 50-mM sodium chloride at pH=7.4) treated group, which served as the control (Group 1).
(§5) Animals were administered 0.1 mL of test material by subcutaneous injection into the paw pad (Intraplantar injection) at time zero. Then, the animals were subsequently evaluated for their response to mechanical (von Frey filaments) and thermal stimuli, 15 and 90 minutes post-injection. The von Frey test was conducted prior to the thermal test, which followed immediately within minutes for each animal. In addition, clinical observation scoring of the animal's reaction to injection was conducted.
The sensitivity of animals to a thermal pain stimulus was assessed immediately following the von Frey test. The time until withdrawal of the right-injected leg from a heat source was measured, and the lower (faster) the time of response represents a greater sensitivity to the stimulus. The test was performed 15 and 90 minutes post-test item injection.

Sprague Dawley rats [6] = assay: Rat intraplantar injection model, von Frey test (Example 10); type: in vivo, Sprague Dawley rat; details: 1 μg/mL or 100 μg/mL; 15 and 90 minutes post-injection
Procedure: as §4, §5
Mechanical pain sensitivity was tested using the von Frey test, which measures the withdrawal force threshold of the animals. The lower the force applied represents a greater sensitivity to the stimulus. The von Frey test was performed 15 and 90 minutes post-test item injection.

rat = assay: Rat intraplantar injection model, mean clinical score (Example 11); details: each of 15 min and 90 min
Excerpt: FIG. 31 presents mean clinical score of cycle 1 (points). Increased/Higher score indicates more observations of adverse events.
FIG. 32 presents mean clinical score of cycle 2 (points). Increased/Higher score indicates more observations of adverse events.
FIGS. 31 and 32 present mean clinical score for Cycles 1 and 2 respectively.

Sprague Dawley rats [7] = assay: Rat intraplantar injection model, clinical observation score (Example 10); type: in vivo, Sprague Dawley rat
Procedure: as §4, §5
A clinical observation score was assigned by assessing for redness, swelling and paw placement.

Sprague Dawley rats [8] = assay: Clinical observations following subcutaneous injection (Example 12); type: in vivo, Sprague Dawley rat; details: 0.1 and 0.3 mg/kg SC; some animals; approximately 4 hours postdosing
Procedure: as §3

[9] = 0.1 mg/kg SC (first statement as printed)

T1 sequence (P43116 whole entry): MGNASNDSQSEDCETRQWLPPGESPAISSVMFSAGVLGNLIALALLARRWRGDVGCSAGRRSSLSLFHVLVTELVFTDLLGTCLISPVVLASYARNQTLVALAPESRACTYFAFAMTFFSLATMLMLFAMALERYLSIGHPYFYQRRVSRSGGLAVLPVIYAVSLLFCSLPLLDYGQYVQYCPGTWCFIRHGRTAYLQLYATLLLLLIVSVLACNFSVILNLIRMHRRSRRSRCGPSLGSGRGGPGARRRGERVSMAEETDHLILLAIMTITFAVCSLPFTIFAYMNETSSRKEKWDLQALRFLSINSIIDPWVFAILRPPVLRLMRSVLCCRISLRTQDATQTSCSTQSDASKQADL

SMILES: CCCCC[C@H](O)CC[C@@H]1[C@H]2Cc3cccc(OCC(=O)O)c3C[C@H]2C[C@H]1O [Treprostinil]
- thermal paw withdrawal time vs PBS treated group (Sprague Dawley rats [1]): statistically significantly faster paw withdrawal time
- EC50 (EP2 receptor): 6.75 nM
- body temperature change (Sprague Dawley rats [2]; 0.000125 mg/kg or 0.00125 mg/kg SC): No significant changes
- diastolic blood pressure change (Sprague Dawley rats [2]; 0.03 mg/kg SC): marginally lower
- mean blood pressure change (Sprague Dawley rats [2]; 0.03 mg/kg SC): marginally lower
- mean blood pressure, time of nadir (Sprague Dawley rats [2]; 0.03 mg/kg SC): 30 min
- systolic blood pressure change (Sprague Dawley rats [2]; 0.03 mg/kg SC): marginally lower
- body temperature changes resolved by (Sprague Dawley rats [2]; 0.1 mg/kg SC): approximately 3 hours
- diastolic blood pressure lowering persisted through (Sprague Dawley rats [2]; 0.1 mg/kg SC): 90 min
- diastolic blood pressure, time of nadir (Sprague Dawley rats [2]; 0.1 mg/kg SC): 30 min
- mean blood pressure lowering persisted through (Sprague Dawley rats [2]; 0.1 mg/kg SC): 90 min
- mean blood pressure, time of nadir (Sprague Dawley rats [2]; 0.1 mg/kg SC): 30 min
- systolic blood pressure lowering persisted through (Sprague Dawley rats [2]; 0.1 mg/kg SC): 90 min
- systolic blood pressure, time of nadir (Sprague Dawley rats [2]; 0.1 mg/kg SC): 30 min
- body temperature change (Sprague Dawley rats [2]; [9]): Marginally lower
- body temperature change persisted through (Sprague Dawley rats [2]; [9]): approximately 3 hours
- body temperature changes resolved by (Sprague Dawley rats [2]; 0.3 mg/kg SC): ~4 h
- diastolic blood pressure lowering persisted through (Sprague Dawley rats [2]; 0.3 mg/kg SC): 180 min
- diastolic blood pressure, time of nadir (Sprague Dawley rats [2]; 0.3 mg/kg SC): 20 min
- mean blood pressure lowering persisted through (Sprague Dawley rats [2]; 0.3 mg/kg SC): 180 min
- mean blood pressure, time of nadir (Sprague Dawley rats [2]; 0.3 mg/kg SC): 20 min
- systolic blood pressure lowering persisted through (Sprague Dawley rats [2]; 0.3 mg/kg SC): 120 min
- systolic blood pressure, time of nadir (Sprague Dawley rats [2]; 0.3 mg/kg SC): 20 min
- pulse pressure change (Sprague Dawley rats [2]; 0.3 mg/kg SC, from 20 to 40 minutes postdosing): Marginally lower
- body temperature change (Sprague Dawley rats [2]; 0.1 and 0.3 mg/kg SC): Significantly lowered
- diastolic blood pressure change (Sprague Dawley rats [2]; 0.1 and 0.3 mg/kg SC): Significantly lower
- diastolic blood pressure, earliest time point of lowering (Sprague Dawley rats [2]; 0.1 and 0.3 mg/kg SC): 10 min
- mean blood pressure change (Sprague Dawley rats [2]; 0.1 and 0.3 mg/kg SC): Significantly lower
- mean blood pressure, earliest time point of lowering (Sprague Dawley rats [2]; 0.1 and 0.3 mg/kg SC): 10 min
- systolic blood pressure change (Sprague Dawley rats [2]; 0.1 and 0.3 mg/kg SC): Significantly lower
- systolic blood pressure, earliest time point of lowering (Sprague Dawley rats [2]; 0.1 and 0.3 mg/kg SC): 10 min
- dose resulting in significantly lower body temperature (Sprague Dawley rats [2]; single SC injection): ≥ 0.030 mg/kg
- dose resulting in significantly lower systolic, diastolic, mean arterial blood pressure (Sprague Dawley rats [2]; single SC injection): ≥ 0.1 mg/kg
- heart rate change (Sprague Dawley rats [2]; single SC injection, all doses): Higher heart rates
- time by which heart rate changes resolved / recovered postdosing (Sprague Dawley rats [2]; single SC injection, all groups): approximately 5 hours
- diastolic blood pressure change (Sprague Dawley rats [2]; ≤0.030 mg/kg SC): No meaningful changes
- mean blood pressure change (Sprague Dawley rats [2]; ≤0.030 mg/kg SC): No meaningful changes
- systolic blood pressure change (Sprague Dawley rats [2]; ≤0.030 mg/kg SC): No meaningful changes
- von Frey withdrawal force threshold vs PBS-treated group (Sprague Dawley rats [3]): reduced withdrawal force threshold
- clinical score (Sprague Dawley rats [4]; 1 μg/mL (cycle 2), both time points (15 and 90 min)): non-zero
- clinical score vs PBS treated group (Sprague Dawley rats [4]; 1 μg/mL or 100 μg/mL, 15 and 90 minutes post-injection): statistically significant increase in the clinical score
- clinical score (Sprague Dawley rats [4]; 100 μg/mL (cycle 1), 15 min): non-zero
- clinical score vs PBS group (Sprague Dawley rats [4]; 100 μg/mL (cycle 1), 90 minutes post-injection): non-zero
- thermal paw withdrawal time vs phosphate buffer treated group (Sprague Dawley rats [5]; 1 μg/mL or 100 μg/mL, 15 minutes post-administration): statistically significantly faster paw withdrawal time
- sensitivity to heat stimulation vs vehicle (phosphate buffer) group (Sprague Dawley rats [5]; 100 μg/mL, 90 minutes post-injection): statistically significantly increased sensitivity
- von Frey withdrawal force threshold vs phosphate buffer group (Sprague Dawley rats [6]): reduced withdrawal force threshold
- mean clinical score of cycle 2 (rat; 1 μg/mL): non-zero
- mean clinical score of cycle 1 (rat; 100 μg/mL): non-zero
- mean clinical score (Sprague Dawley rats [7]; 100 μg/mL, each of 15 min and 90 min): non-zero
- clinical score vs phosphate buffer treated group (statistically significant increase) (Sprague Dawley rats [7]; both doses, 90 minutes): same effect
- clinical observations (Sprague Dawley rats [8]): flushed extremities
